Values joined by “and” are separate entries in the source; they are usually repeats but may differ in a detail not shown here. Identical values can stand only once. Toxic doses and inconclusive results are not listed. No stated cut-off is given here; in the data, active means T/C of 150% or more; inactive means T/C below 125%.
Test system: L1210 leukemia ip in BDF1 mice, survival T/C
Experiment: NCI In Vivo Anticancer Drug Screen. Data for tumor model L1210 Leukemia (intraperitoneal) in B6D2F1 (BDF1) mice
Conditions: endpoint: mean survival time, higher = longer survival
In short: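 Survival endpoint. Drug-treated group vs vehicle group, expressed as T divided by C. Tumor passaged by transplantation.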

[1] = dose: 50.0 mg/kg/injection, schedule: Q04DX003 (ip), vehicle: Klucel (hydroxypropylcellulose) (HPC)
[2] = dose: 100.0 mg/kg/injection, schedule: Q04DX003 (ip), vehicle: Klucel (hydroxypropylcellulose) (HPC)
[3] = dose: 200.0 mg/kg/injection, schedule: Q04DX003 (ip), vehicle: Klucel (hydroxypropylcellulose) (HPC)
[4] = dose: 100.0 mg/kg/injection, schedule: Q01DX009 (ip), vehicle: Klucel (hydroxypropylcellulose) (HPC)
[5] = dose: 200.0 mg/kg/injection, schedule: Q01DX009 (ip), vehicle: Klucel (hydroxypropylcellulose) (HPC)
[6] = dose: 400.0 mg/kg/injection, schedule: Q01DX009 (ip), vehicle: Klucel (hydroxypropylcellulose) (HPC)
[7] = dose: 100.0 mg/kg/injection, schedule: Q04DX002 (ip), vehicle: saline with Tween-80
[8] = dose: 200.0 mg/kg/injection, schedule: Q04DX002 (ip), vehicle: saline with Tween-80
[9] = dose: 400.0 mg/kg/injection, schedule: Q04DX002 (ip), vehicle: saline with Tween-80
[10] = dose: 100.0 mg/kg/injection, schedule: Q01DX001 (ip), vehicle: saline
[11] = dose: 200.0 mg/kg/injection, schedule: Q01DX001 (ip), vehicle: saline
[12] = dose: 400.0 mg/kg/injection, schedule: Q01DX001 (ip), vehicle: saline
[13] = dose: 100.0 mg/kg/injection, schedule: Q04DX002 (ip), vehicle: saline
[14] = dose: 200.0 mg/kg/injection, schedule: Q04DX002 (ip), vehicle: saline
[15] = dose: 400.0 mg/kg/injection, schedule: Q04DX002 (ip), vehicle: saline
[16] = dose: 100.0 mg/kg/injection, schedule: Q04DX003 (ip), vehicle: saline
[17] = dose: 200.0 mg/kg/injection, schedule: Q04DX003 (ip), vehicle: saline
[18] = dose: 50.0 mg/kg/injection, schedule: Q01DX009 (ip), vehicle: saline
[19] = dose: 100.0 mg/kg/injection, schedule: Q04DX003 (ip), vehicle: saline with Tween-80
[20] = dose: 200.0 mg/kg/injection, schedule: Q04DX003 (ip), vehicle: saline with Tween-80
[21] = dose: 400.0 mg/kg/injection, schedule: Q04DX003 (ip), vehicle: saline with Tween-80

Measured: T/C

CN=C(NC)c1cccc(NC(=O)Nc2ccc(NC(=O)Nc3cccc(C(=NC)NC)c3)cc2)c1
inactive: dose: 2.3 mg/kg/injection, schedule: Q01DX Z (ip), vehicle: carboxymethylcellulose (CMC) 93 % of control | dose: 3.5 mg/kg/injection, schedule: Q01DX Z (ip), vehicle: carboxymethylcellulose (CMC) 97 % of control | dose: 5.3 mg/kg/injection, schedule: Q01DX Z (ip), vehicle: carboxymethylcellulose (CMC) 95 % of control | dose: 5.5 mg/kg/injection, schedule: Q01DX Z (ip), vehicle: carboxymethylcellulose (CMC) 96 % of control | dose: 8.0 mg/kg/injection, schedule: Q01DX Z (ip), vehicle: carboxymethylcellulose (CMC) 97 % of control | dose: 8.3 mg/kg/injection, schedule: Q01DX Z (ip), vehicle: carboxymethylcellulose (CMC) 98 % of control | dose: 12.5 mg/kg/injection, schedule: Q01DX Z (ip), vehicle: carboxymethylcellulose (CMC) 101 % of control | dose: 18.75 mg/kg/injection, schedule: Q01DX Z (ip), vehicle: carboxymethylcellulose (CMC) 115 % of control

[Cl][Hg][c]1cccs1
inactive: dose: 12.5 mg/kg/injection, schedule: Q01DX009 (ip), vehicle: Klucel (hydroxypropylcellulose) (HPC) 95 % of control | dose: 25.0 mg/kg/injection, schedule: Q01DX009 (ip), vehicle: Klucel (hydroxypropylcellulose) (HPC) 93 % of control

CCOC(=O)C(CC)(OO)c1ccncc1Br (centres undefined)
inactive: dose: 25.0 mg/kg/injection, schedule: Q01DX001 (ip), vehicle: Klucel (hydroxypropylcellulose) (HPC) 101 % of control | dose: 50.0 mg/kg/injection, schedule: Q01DX001 (ip), vehicle: Klucel (hydroxypropylcellulose) (HPC) 104 % of control | [1] 101 % of control | dose: 100.0 mg/kg/injection, schedule: Q01DX001 (ip), vehicle: Klucel (hydroxypropylcellulose) (HPC) 100 % of control and 101 % of control | [2] 91 % of control | [3] 92 % of control

O=C(Nc1ccc(O)cc1)Nc1cccc(Cl)c1Cl
inactive: [4] 97 % of control | [5] 92 % of control | [6] 103 % of control

CS(=O)(=O)OCCN(CCOS(C)(=O)=O)c1ccc(C=Nc2cccc(Cl)c2)cc1
inactive: dose: 1.25 mg/kg/injection, schedule: Q04DX003 (ip), vehicle: Klucel (hydroxypropylcellulose) (HPC) 107 % of control | dose: 5.0 mg/kg/injection, schedule: Q04DX003 (ip), vehicle: Klucel (hydroxypropylcellulose) (HPC) 107 % of control

Oc1ccccc1/C=N\Sc1ccc(Br)cc1
inactive: [7] 112 % of control | [8] 91 % of control | [9] 94 % of control

CCCCCCCCCCNC(=O)C[n+]1cccc(C(=O)NC)c1
inactive: dose: 12.5 mg/kg/injection, schedule: Q04DX003 (ip), vehicle: saline 95 % of control | dose: 25.0 mg/kg/injection, schedule: Q04DX003 (ip), vehicle: saline 89 % of control

Cc1c(C=O)[nH]c(=O)[nH]c1=O
inactive: [10] 90 % of control | [11] 102 % of control | [12] 96 % of control

CC(C)C(NC(=O)NCCCl)c1ccccc1 (centres undefined)
inactive: [2] 88 % of control | [3] 88 % of control

CCCCOC(=O)C1(C)OC1c1ccccc1 (centres undefined)
inactive: [13] 101 % of control | [14] 89 % of control | [15] 101 % of control

Cc1cc(=O)[nH]c(NCCCC(N)C(=O)O)n1 (centres undefined)
inactive: [13] 104 % of control | [14] 101 % of control | [15] 96 % of control

O=C1c2ccccc2C(=O)N1OC1CCCCO1 (centres undefined)
inactive: [4] 104 % of control | [5] 110 % of control | [6] 97 % of control

CC(=O)OC1=CC2(OC(C)=O)CC1C1C(=O)OC(=O)C12 (centres undefined)
inactive: [10] 101 % of control | [16] 96 % of control | [11] 98 % of control | [17] 96 % of control | [12] 88 % of control | dose: 400.0 mg/kg/injection, schedule: Q04DX003 (ip), vehicle: saline 86 % of control

Nc1nc(N)c2c(n1)[n+]([O-])c1ccccc1[n+]2[O-]
inactive: [10] 103 % of control | [11] 103 % of control | [12] 94 % of control

NNc1nncn1N
inactive: [18] 101 % of control | dose: 100.0 mg/kg/injection, schedule: Q01DX009 (ip), vehicle: saline 102 % of control | [16] 97 % of control | dose: 200.0 mg/kg/injection, schedule: Q01DX009 (ip), vehicle: saline 103 % of control | [17] 94 % of control

Cc1cc(O)cc(C)c1Cl
inactive: dose: 100.0 mg/kg/injection, schedule: Q01DX009 (ip), vehicle: saline with Tween-80 91 % of control | [19] 92 % of control | dose: 200.0 mg/kg/injection, schedule: Q01DX009 (ip), vehicle: saline with Tween-80 92 % of control | [20] 96 % of control | dose: 400.0 mg/kg/injection, schedule: Q01DX009 (ip), vehicle: saline with Tween-80 89 % of control | [21] 96 % of control

CC(C)(C)N1CC1C(=O)Sc1ccccc1 (centres undefined)
inactive: dose: 25.0 mg/kg/injection, schedule: Q04DX003 (ip), vehicle: Klucel (hydroxypropylcellulose) (HPC) 102 % of control | [1] 101 % of control | [2] 109 % of control

COc1ccc(OC)c(OC)c1CC(C)N (centres undefined)
inactive: dose: 25.0 mg/kg/injection, schedule: Q01DX009 (ip), vehicle: saline 108 % of control | [18] 104 % of control

[O]=[Sn]([OH])[c]1ccccc1
inactive: [7] 102 % of control | [8] 105 % of control | [9] 94 % of control

N#Cc1ccc2cn[nH]c2c1
inactive: [19] 92 % of control | [20] 101 % of control | [21] 99 % of control

Cc1ccc(N=C2CCCCC2Nc2ccc(C)cc2)cc1.[Cl][Zn][Cl] (centres undefined)
inactive: [10] 98 % of control | [11] 101 % of control | [12] 104 % of control

Reference: PubChem BioAssay AID248 (DTP/NCI, 2004)
